Measured values: patent US12091425B2 (AMGEN INC., priority 2016, dated 2024)

How the values were obtained:
[1] = tested on: OPM-2 human multiple myeloma cell line; test: Cell Viability Assay (OPM-2 10 FBS); format: cell-based; conditions: OPM-2 cells, 16 h, CellTiter-Glo
In short: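 ATP-based luminescence (CellTiter-Glo) measured after a 16 h compound treatment of OPM-2 cells seeded at 3000 cells/well in 10% FBS medium. IC50 values derived by 4-parameter logistic fitting of serial dilutions.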

[2] = target: T1, Mcl-1/Bim interaction, recombinant human Mcl-1 (171-327) (Homo sapiens, UniProt Q07820); test: Cell free Mcl-1: Bim Affinity Assay (Mcl-1 HTRF); format: binding; conditions: cell free Mcl-1:Bim TR-FRET, recombinant human Mcl-1 (171-327)
T1 construct: made in house
In short: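 TR-FRET competition assay with biotinylated human Bim peptide (residues 51-76); reaction plates incubated overnight before reading. IC50 values came from duplicate data fitted to a four-parameter sigmoidal competition curve.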

T1 sequence (Q07820 171-327): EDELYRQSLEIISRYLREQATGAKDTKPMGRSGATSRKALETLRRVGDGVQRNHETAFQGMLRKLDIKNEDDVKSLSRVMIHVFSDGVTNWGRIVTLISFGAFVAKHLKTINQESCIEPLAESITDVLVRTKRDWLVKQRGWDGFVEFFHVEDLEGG

Row | Structure (SMILES) | IC50 [1] | IC50 [2] | IC50 ([1]; Homo sapiens, OPM-2, 16 h)
1 | CO[C@H]1C/C=C/[C@H](OCCN2CCOCC2)[C@@H]2CC[C@H]2CN2C[C@@]3(CCCc4cc(Cl)ccc43)COc3ccc(cc32)C(=O)NS(=O)(=O)[C@@H]1C[C@@H]1CCCO1 (single isomer, unassigned) [Example 645] | 125 nM | 0.589 nM | –
2 | O=C1NS(=O)(=O)[C@H](Cc2ccccc2)C/C=C/[C@H](O)[C@@H]2CC[C@H]2CN2C[C@@]3(CCCc4cc(Cl)ccc43)COc3ccc1cc32 (single isomer, unassigned) [Example 646] | 23700 nM | 45.3 nM | –
3 | CC1CC=CC(O)C2CCC2CN2CC3(CCCc4cc(Cl)ccc43)COc3ccc(cc32)C(=O)NS(=O)(=O)C1Cc1ccccc1 (single isomer, unassigned) [Example 648] | – | 1.45 nM | 154 nM
4 | COC[C@H](O)C[C@@H]1CC/C=C/[C@H](OC)[C@@H]2CC[C@H]2CN2C[C@@]3(CCCc4cc(Cl)ccc43)COc3ccc(cc32)C(=O)NS1(=O)=O (single isomer, unassigned) [Example 651] | 229 nM | 0.316 nM | –
5 | COC[C@H](O)C[C@@H]1CC/C=C/[C@H](OC)[C@@H]2CC[C@H]2CN2C[C@@]3(CCCc4cc(Cl)ccc43)COc3ccc(cc32)C(=O)NS1(=O)=O (single isomer, unassigned) [Example 652] | 4460 nM | 2.4 nM | –
6 | C[C@H]1C/C=C/[C@H](O)[C@@H]2CC[C@H]2CN2C[C@@]3(CCCc4cc(Cl)ccc43)COc3ccc(cc32)C(=O)NS(=O)(=O)[C@@H]1c1ccccc1 (single isomer, unassigned) [Example 653] | 371 nM | 0.722 nM | –
7 | C[C@H]1C/C=C/[C@H](O)[C@@H]2CC[C@H]2CN2C[C@@]3(CCCc4cc(Cl)ccc43)COc3ccc(cc32)C(=O)NS(=O)(=O)[C@@H]1c1ccccc1 (single isomer, unassigned) [Example 654] | 3510 nM | 7.6 nM | –
8 | COCC(O)CC1CCC=CC(OC)C2CCC2CN2CC3(CCCc4cc(Cl)ccc43)COc3ccc(cc32)C(=O)NS1(=O)=O (single isomer, unassigned) [Example 658] | – | 0.285 nM | 259 nM
9 | COC[C@@H](O)C[C@@H]1CC/C=C/[C@H](OC)[C@@H]2CC[C@H]2CN2C[C@@]3(CCCc4cc(Cl)ccc43)COc3ccc(cc32)C(=O)NS1(=O)=O (single isomer, unassigned) [Example 659] | 10900 nM | 3.37 nM | –
10 | CC1CC=CC(O)C2CCC2CN2CC3(CCCc4cc(Cl)ccc43)COc3ccc(cc32)C(=O)NS(=O)(=O)C1CC(F)(F)F (single isomer, unassigned) [Example 663] | – | 0.312 nM | 3110 nM
11 | C[C@H]1C/C=C/[C@H](O)[C@@H]2CC[C@H]2CN2C[C@@]3(CCCc4cc(Cl)ccc43)COc3ccc(cc32)C(=O)NS(=O)(=O)N1Cc1ccccn1 (single isomer, unassigned) [Example 667] | 378 nM | 0.244 nM | –
12 | CC1CC=CC(O)C2CCC2CN2CC3(CCCc4cc(Cl)ccc43)COc3ccc(cc32)C(=O)NS(=O)(=O)N1Cc1ccccn1 (single isomer, unassigned) [Example 668] | – | 17 nM | 11600 nM
13 | COCCO[C@H]1/C=C/C[C@H](C)[C@@H](CC(F)(F)F)S(=O)(=O)NC(=O)c2ccc3c(c2)N(C[C@@H]2CC[C@H]21)C[C@@]1(CCCc2cc(Cl)ccc21)CO3 (single isomer, unassigned) [Example 669] | 272 nM | 1.37 nM | –
14 | COCCO[C@H]1/C=C/C[C@H](C)[C@H](c2ccccc2)S(=O)(=O)NC(=O)c2ccc3c(c2)N(C[C@@H]2CC[C@H]21)C[C@@]1(CCCc2cc(Cl)ccc21)CO3 (single isomer, unassigned) [Example 670] | 1000 nM | 2.48 nM | –
15 | COCCO[C@H]1/C=C/C[C@H](C)[C@H](c2ccccc2)S(=O)(=O)NC(=O)c2ccc3c(c2)N(C[C@@H]2CC[C@H]21)C[C@@]1(CCCc2cc(Cl)ccc21)CO3 (single isomer, unassigned) [Example 671] | 5650 nM | 19.8 nM | –
16 | COC[C@@H](O)C[C@@H]1[C@@H](C)C/C=C/[C@H](O)[C@@H]2CC[C@H]2CN2C[C@@]3(CCCc4cc(Cl)ccc43)COc3ccc(cc32)C(=O)NS1(=O)=O (single isomer, unassigned) [Example 672] | 286 nM | 0.193 nM | –
17 | COC[C@@H](O)C[C@@H]1[C@@H](C)C/C=C/[C@H](O)[C@@H]2CC[C@H]2CN2C[C@@]3(CCCc4cc(Cl)ccc43)COc3ccc(cc32)C(=O)NS1(=O)=O (single isomer, unassigned) [Example 673] | 445 nM | 0.183 nM | –
18 | O=C1NS(=O)(=O)C(c2ccccc2)CC/C=C/[C@H](O)[C@@H]2CC[C@H]2CN2C[C@@]3(CCCc4cc(Cl)ccc43)COc3ccc1cc32 (single isomer, unassigned) [Example 674] | 1090 nM | 8.2 nM | –
19 | O=C1NS(=O)(=O)C(c2ccccc2)CC/C=C/[C@H](O)[C@@H]2CC[C@H]2CN2C[C@@]3(CCCc4cc(Cl)ccc43)COc3ccc1cc32 (single isomer, unassigned) [Example 675] | 480 nM | 0.437 nM | –
20 | CC1C(C2CC2)CC=CC(O)C2CCC2CN2CC3(CCCc4cc(Cl)ccc43)COc3ccc(cc32)C(=O)NS1(=O)=O (single isomer, unassigned) [Example 677] | – | 9.57 nM | 3550 nM
21 | COC[C@@H](O)C[C@@H]1[C@@H](C)C/C=C/[C@H](OC)[C@@H]2CC[C@H]2CN2C[C@@]3(CCCc4cc(Cl)ccc43)COc3ccc(cc32)C(=O)NS1(=O)=O (single isomer, unassigned) [Example 679] | 205 nM | 0.429 nM | –
22 | O=C1NS(=O)(=O)C[C@@H](C2CC2)C/C=C/[C@H](O)[C@@H]2CC[C@H]2CN2C[C@@]3(CCCc4cc(Cl)ccc43)COc3ccc1cc32 (single isomer, unassigned) [Example 683] | 2090 nM | 2.31 nM | –
23 | CC[C@H]1C/C=C/[C@H](O)[C@@H]2CC[C@H]2CN2C[C@@]3(CCCc4cc(Cl)ccc43)COc3ccc(cc32)C(=O)NS(=O)(=O)N1 (single isomer, unassigned) [Example 685] | 7180 nM | 2.66 nM | –
24 | CC[C@H]1C/C=C/[C@H](O)[C@@H]2CC[C@H]2CN2C[C@@]3(CCCc4cc(Cl)ccc43)COc3ccc(cc32)C(=O)NS(=O)(=O)N1 (single isomer, unassigned) [Example 686] | 993 nM | 0.597 nM | –
25 | CO[C@H]1/C=C/C[C@H](C)[C@@H](CC(F)(F)F)S(=O)(=O)NC(=O)c2ccc3c(c2)N(C[C@@H]2CC[C@H]21)C[C@@]1(CCCc2cc(Cl)ccc21)CO3 (single isomer, unassigned) [Example 689] | 836 nM | 2.53 nM | –
26 | O=C1NS(=O)(=O)[C@H](c2ccccn2)CC/C=C/[C@H](O)[C@@H]2CC[C@H]2CN2C[C@@]3(CCCc4cc(Cl)ccc43)COc3ccc1cc32 (single isomer, unassigned) [Example 692] | 1520 nM | 0.6 nM | –
27 | O=C1NS(=O)(=O)[C@H](c2ccccn2)CC/C=C/[C@H](O)[C@@H]2CC[C@H]2CN2C[C@@]3(CCCc4cc(Cl)ccc43)COc3ccc1cc32 (single isomer, unassigned) [Example 693] | 742 nM | 0.235 nM | –
28 | O=C1NS(=O)(=O)C[C@@H]2C[C@@H]2/C=C/[C@H](O)[C@@H]2CC[C@H]2CN2C[C@@]3(CCCc4cc(Cl)ccc43)COc3ccc1cc32 (single isomer, unassigned) [Example 784] | 14200 nM | 2.69 nM | –
